Test results: patent publication US11939305B1, “Ethyl 2-(5-(3-fluorophenyl)-4-phenyl-4H-1,2,4-triazol-3-ylthio)acetate as an antimicrobial compound” (KING FAISAL UNIVERSITY, priority 2023, dated 2024)

Tests used:
Format in all cases: cell-based
Escherichia coli = assay: Agar plate disc-diffusion, antibacterial inhibition zone
Protocol: (§1) The agar plate disc-diffusion method was applied. […] The discs were then placed onto the surface of agar plates (nutrient agar for bacteria and Sabouraud's dextrose agar for fungi) seeded with the test organism. Each plate contained 15 mL of the agar medium, previously seeded with 0.2 mL of the broth culture of each organism pregrown for 18 hours. The plates were incubated at 37° C. for 48 hours, and 72 hours for fungi. The inhibition zones were measured in mm. Discs impregnated with DMSO were used as a control, and its inhibition zone was subtracted from the tested compound actual inhibition zone.

Staphylococcus aureus = assay: as above
Protocol: as §1

Bacillus cereus = assay: as above
Protocol: as §1

Pseudomonas aeruginosa = assay: as above
Protocol: as §1

Aspergillus flavus = assay: Agar plate disc-diffusion, antifungal inhibition zone
Protocol: as §1

[1] = system: Chrysosporium keratinophilum; assay: as above
Protocol: as §1

different microbes = assay: Antimicrobial screening, overall statement; details: against different microbes (bacteria and fungi of Tables 1 and 2)
Protocol: The agar plate disc-diffusion method was applied. Sterilized filter papers (6 mm in diameter) were wetted with 10 μL of a solution of ethyl 2-(5-(3-fluorophenyl)-4-phenyl-4H-1,2,4-triazol-3-ylthio)acetate (III) to be tested, containing 10 mg/mL in DMSO, and the discs were allowed to air dry. The discs were then placed onto the surface of agar plates (nutrient agar for bacteria and Sabouraud's dextrose agar for fungi) seeded with the test organism. Each plate contained 15 mL of the agar medium, previously seeded with 0.2 mL of the broth culture of each organism pregrown for 18 hours. The plates were incubated at 37° C. for 48 hours, and 72 hours for fungi. The inhibition zones were measured in mm. Discs impregnated with DMSO were used as a control, and its inhibition zone was subtracted from the tested compound actual inhibition zone.

[2] = A = concentration of comp. = 10,000 μL
[3] = B = concentration of comp. = 30,000 μL
[4] = C = concentration of comp. = 50,000 μL

SMILES | inhibition zone (Escherichia coli; [2]) | inhibition zone (Escherichia coli; [3]) | inhibition zone (Escherichia coli; [4]) | inhibition zone (Staphylococcus aureus; [2]) | inhibition zone (Staphylococcus aureus; [3]) | inhibition zone (Staphylococcus aureus; [4]) | inhibition zone (Bacillus cereus; [2]) | inhibition zone (Bacillus cereus; [3]) | inhibition zone (Bacillus cereus; [4]) | inhibition zone (Pseudomonas aeruginosa; [2]) | inhibition zone (Pseudomonas aeruginosa; [3]) | inhibition zone (Pseudomonas aeruginosa; [4]) | inhibition zone (Aspergillus flavus; [2]) | inhibition zone (Aspergillus flavus; [3]) | inhibition zone (Aspergillus flavus; [4]) | inhibition zone [1, 2] | inhibition zone [1, 3] | inhibition zone [1, 4] | antimicrobial activity (in words) (different microbes)
O=C(O)c1cn(C2CC2)c2cc(N3CCNCC3)c(F)cc2c1=O [Cip., ciprofloxacin, reference compound] | 30 mm | 39 mm | 60 mm | 43 mm | 44 mm | 53 mm | 29 mm | 30 mm | 42 mm | 29 mm | 30 mm | 53 mm | 29 mm | 30 mm | 42 mm | 29 mm | 30 mm | 53 mm | 
CCOC(=O)CSc1nnc(-c2cccc(F)c2)n1-c1ccccc1 [III, ethyl 2-(5-(3-fluorophenyl)-4-phenyl-4H-1,2,4-triazol-3-ylthio)acetate] | 26 mm | 34 mm | 50 mm | 18 mm | 21 mm | 30 mm | 24 mm | 27 mm | 39 mm | 25 mm | 26 mm | 44 mm | 20 mm | 23 mm | 29 mm | 25 mm | 29 mm | 47 mm | excellent antimicrobials activities
